According to patent US12516067B2, “Antagonists of the muscarinic acetylcholine receptor M4” (Vanderbilt University, priority 2020, dated 2026):

Molecular target: T1, Human M4 (Homo sapiens, UniProt P08173)
T1 construct: expressed in transfected cells; host or cells: CHO-K1 (ATCC), co-transfected with chimeric G protein Gqi5
T1 sequence (P08173 1-479): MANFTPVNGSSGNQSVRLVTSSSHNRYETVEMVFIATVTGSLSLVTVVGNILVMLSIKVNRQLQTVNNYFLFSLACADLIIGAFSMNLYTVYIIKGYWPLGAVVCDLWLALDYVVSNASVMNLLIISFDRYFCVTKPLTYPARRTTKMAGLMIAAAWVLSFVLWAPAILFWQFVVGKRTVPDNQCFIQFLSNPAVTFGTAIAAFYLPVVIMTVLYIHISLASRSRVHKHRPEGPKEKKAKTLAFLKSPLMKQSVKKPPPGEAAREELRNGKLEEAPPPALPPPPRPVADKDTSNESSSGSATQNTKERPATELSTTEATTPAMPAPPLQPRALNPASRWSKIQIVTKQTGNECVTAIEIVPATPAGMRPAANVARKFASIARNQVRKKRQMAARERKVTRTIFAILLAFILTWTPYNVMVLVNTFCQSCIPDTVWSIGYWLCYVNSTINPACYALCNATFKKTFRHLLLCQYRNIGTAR
Test: mAChR M4 cell-based functional assay (calcium flux, decrease of EC80 acetylcholine response) in M4/Gqi5/CHO-K1 cells
Details: CHO-K1 cells with human M4 and Gqi5; for remaining activity at 30 µM: % ACh maximum at 30 μM, read-out: Human M4 Emin; for IC50: antagonist mode: concentration-dependent decrease of response to EC80 acetylcholine
Description: Human or rat M4 cDNA, along with the chimeric G protein Gqi5, were transfected into Chinese hamster ovary (CHO-K1) cells purchased from the American Type Culture Collection using Lipofectamine2000. M4/Gqi5/CHO cells were grown in Ham's F-12 medium containing 10% heat-inactivated fetal bovine serum (FBS), 20 mM HEPES, 500 μg/mL G418 sulfate, and 200 μg/mL Hygromycin B.
For high throughput measurement of agonist-evoked increases in intracellular calcium, CHO-K1 cells stably expressing muscarinic receptors were plated in growth medium lacking G418 and hygromycin at 15,000 cells/20 μL/well in Greiner 384-well black-walled, tissue culture (TC)-treated, clear-bottom plates (VWR). Cells were incubated overnight at 37° C. and 5% CO2. The next day, cells were washed using an ELX 405 (BioTek) with assay buffer; the final volume was then aspirated to 20 μL. Next, 20 μL of a 2.3 μM stock of Fluo-4/acetoxymethyl ester (Invitrogen, Carlsbad, CA), prepared as a 2.3 mM stock in DMSO and mixed in a 1:1 ratio with 10% (w/v) Pluronic F-127 and diluted in assay buffer, was added to the wells and the cell plates were incubated for 50 min at 37° C. and 5% CO2. Dye was removed by washing with the ELX 405 and the final volume was aspirated to 20 μL. Compound master plates were formatted in a 10 point concentration-response curve (CRC) format (1:3 dilutions) in 100% DMSO with a starting concentration of 10 or 1 mM using a BRAVO liquid handler (Agilent). Test compound CRCs were then transferred to daughter plates (240 nL) using the Echo acoustic plate reformatter (Labcyte, Sunnyvale, CA) and then diluted into assay buffer (40 μL) to a 2× stock using a Thermo Fisher Combi (Thermo Fisher Scientific, Waltham, MA).
Calcium flux was measured using the Functional Drug Screening System (FDSS) 6000 or 7000 (Hamamatsu Corporation, Tokyo, Japan) as an increase in the fluorescent static ratio. Compounds were applied to cells (20 μL, 2×) using the automated system of the FDSS at 2 seconds into the protocol and the data were collected at 1 Hz. At 143 s, 10 μL of an EC20 concentration of the muscarinic receptor agonist acetylcholine was added (5×), followed by the addition of 12 μL of an EC80 concentration of acetylcholine at the 268 s time point (5×). Agonist activity was analyzed as a concentration-dependent increase in calcium mobilization upon compound addition. Positive allosteric modulator activity was analyzed as a concentration-dependent increase in the EC20 acetylcholine response. Antagonist activity was analyzed as a concentration-dependent decrease in the EC80 acetylcholine response; for the purposes of the tables herein, an IC50 (inhibitory concentration 50) was calculated as a concentration-dependent decrease of the response elicited by an EC80 concentration of acetylcholine. Concentration-response curves were generated using a four-parameter logistical equation in XLFit curve fitting software (IDBS, Bridgewater, NJ) for Excel (Microsoft, Redmond, WA) or Prism (GraphPad Software, Inc., San Diego, CA) or the Dotmatics software platform (Dotmatics, Bishop's Stortford, UK).
Compounds were synthesized as described above. Activity (IC50 and Emin) was determined in the mAChR M4 cell-based functional assay as described above and the data are shown in Table 1.

Row | remaining activity at 30 µM [%] | IC50 [nM] | Structure (SMILES)
1 | 7 | 1680 | CN(Cc1csc2c1CCN(CC1CCOCC1)C2)c1ccc(-c2cc(F)ccc2Cl)nn1 [A14, 6-(2-chloro-5-fluorophenyl)-N-methyl-N-((6-((tetrahydro-2H-pyran-4-yl)methyl)-4,5,6,7-tetrahydrothieno[2,3-c]pyridin-3-yl)methyl)pyridazin-3-amine]
2 | 6 | 257 | OC1(CN2CCc3c(CNc4ccc(-c5cc(F)ccc5Cl)nn4)cccc3C2)CCCCC1 [B6, 1-((5-(((6-(2-chloro-5-fluorophenyl)pyridazin-3-yl)amino)methyl)-3,4-dihydroisoquinolin-2(1H)-yl)methyl)cyclohexan-1-ol]
3 | 3 | 595 | Fc1cc(F)c(F)c(-c2ccc(NCc3csc4c3CCN(CC3CCOCC3)C4)nn2)c1 [A1, N-((6-((tetrahydro-2H-pyran-4-yl)methyl)-4,5,6,7-tetrahydrothieno[2,3-c]pyridin-3-yl)methyl)-6-(2,3,5-trifluorophenyl)pyridazin-3-amine]
4 | 6 | 98.9 | CC(C)(C)CCN1CCc2c(CNc3ccc(-c4cc(F)ccc4Cl)nn3)cccc2C1 [B2, 6-(2-chloro-5-fluorophenyl)-N-((2-(3,3-dimethylbutyl)-1,2,3,4-tetrahydroisoquinolin-5-yl)methyl)pyridazin-3-amine]
5 | 4 | 150 | [2H]C([2H])(C1CCOCC1)N1CCc2c(CNc3ccc(-c4cc(F)ccc4Cl)nn3)cccc2C1 [B13, 6-(2-chloro-5-fluorophenyl)-N-((2-((tetrahydro-2H-pyran-4-yl)methyl-d2)-1,2,3,4-tetrahydroisoquinolin-5-yl)methyl)pyridazin-3-amine]
6 | 3 | 85.2 | Fc1ccc(Cl)c(-c2ccc(NCc3csc4c3CCN(CC3CCOCC3)C4)nn2)c1 [A2, 6-(2-chloro-5-fluorophenyl)-N-((6-((tetrahydro-2H-pyran-4-yl)methyl)-4,5,6,7-tetrahydrothieno[2,3-c]pyridin-3-yl)methyl)pyridazin-3-amine]
7 | 6 | 251 | Fc1ccc(Cl)c(-c2ccc(NCc3cccc4c3CCN(CC3CCCCC3)C4)nn2)c1 [B3, 6-(2-chloro-5-fluorophenyl)-N-((2-(cyclohexylmethyl)-1,2,3,4-tetrahydroisoquinolin-5-y1)methyl)pyridazin-3-amine]
8 | 6 | 288 | Fc1ccc(Cl)c(-c2ccc(NCc3cccc4c3CCN(Cc3ccccn3)C4)nn2)c1 [B4, 6-(2-chloro-5-fluorophenyl)-N-((2-(pyridin-2-ylmethyl)-1,2,3,4-tetrahydroisoquinolin-5-yl)methyl)pyridazin-3-amine]
9 | 8 | 781 | Fc1ccc(F)c(-c2ccc(NCc3cccc4c3CCN(CC3CCOCC3)C4)nn2)c1 [B8, 6-(2,5-difluorophenyl)-N-((2-((tetrahydro-2H-pyran-4-yl)methyl)-1,2,3,4-tetrahydroisoquinolin-5-yl)methyl)pyridazin-3-amine]
10 | 5 | 919 | [2H]C([2H])(C1CCOCC1)N1CCc2c(CNc3ccc(-c4cc(F)cc(F)c4F)nn3)cccc2C1 [B14, N-((2-((tetrahydro-2H-pyran-4-yl)methyl-d2)-1,2,3,4-tetrahydroisoquinolin-5-yl)methyl)-6-(2,3,5-trifluorophenyl)pyridazin-3-amine]
11 | 12 | 2700 | CC(=O)Nc1ccc(-c2ccc(NCc3cccc4c3CCN(CC3CCOCC3)C4)nn2)cc1 [B11, N-(4-(6-(((2-((tetrahydro-2H-pyran-4-yl)methyl)-1,2,3,4-tetrahydroisoquinolin-5-yl)methyl)amino)pyridazin-3-yl)phenyl)acetamide]
12 | 13 | 3380 | c1ccc(-c2ccc(NCc3cccc4c3CCN(CC3CCOCC3)C4)nn2)cc1 [B12, 6-phenyl-N-((2-((tetrahydro-2H-pyran-4-yl)methyl)-1,2,3,4-tetrahydroisoquinolin-5-yl)methyl)pyridazin-3-amine]
13 | 8 | 957 | [2H]C([2H])([2H])N(Cc1csc2c1CCN(CC1CCOCC1)C2)c1ccc(-c2cc(F)ccc2Cl)nn1 [A15, 6-(2-chloro-5-fluorophenyl)-N-(methyl-d3)-N-((6-((tetrahydro-2H-pyran-4-yl)methyl)-4,5,6,7-tetrahydrothieno[2,3-c]pyridin-3-yl)methyl)pyridazin-3-amine]
14 | 6 | 356 | Fc1ccc(Cl)c(-c2ccc(NCc3cccc4c3CCN(CC3CCOCC3)C4)nn2)c1 [B1, 6-(2-chloro-5-fluorophenyl)-N-((2-((tetrahydro-2H-pyran-4-yl)methyl)-1,2,3,4-tetrahydroisoquinolin-5-yl)methyl)pyridazin-3-amine]
15 | 5 | 99.7 | Fc1ccc(Cl)c(-c2ccc(NCc3csc4c3CCN(CC3CCCCC3)C4)nn2)c1 [A9, 6-(2-chloro-5-fluorophenyl)-N-((6-(cyclohexylmethyl)-4,5,6,7-tetrahydrothieno[2,3-c]pyridin-3-yl)methyl)pyridazin-3-amine]
16 | 4 | 84.7 | CC(C)(C)CCN1CCc2c(CNc3ccc(-c4cc(F)ccc4Cl)nn3)csc2C1 [A10, 6-(2-chloro-5-fluorophenyl)-N-((6-(3,3-dimethylbutyl)-4,5,6,7-tetrahydrothieno[2,3-c]pyridin-3-y)methyl)pyridazin-3-amine]
17 | 10 | 1480 | Cc1ccc(CN2CCc3c(CNc4ccc(-c5cc(F)ccc5Cl)nn4)csc3C2)nc1 [A12, 6-(2-chloro-5-fluorophenyl)-N-((6-((5-methylpyridin-2-yl)methyl)-4,5,6,7-tetrahydrothieno[2,3-c]pyridin-3-yl)methyl)pyridazin-3-amine]
18 | 4 | 183 | Fc1ccc(Cl)c(-c2ccc(NCc3csc4c3CCN(Cc3ccccn3)C4)nn2)c1 [A11, 6-(2-chloro-5-fluorophenyl)-N-((6-(pyridin-2-ylmethyl)-4,5,6,7-tetrahydrothieno[2,3-c]pyridin-3-yl)methyl)pyridazin-3-amine]
19 | 9 | 529 | Cn1cc2cc(-c3ccc(NCc4csc5c4CCN(CC4CCOCC4)C5)nn3)ccc2n1 [A3, 6-(2-methyl-2H-indazol-5-yl)-N-((6-((tetrahydro-2H-pyran-4-yl)methyl)-4,5,6,7-tetrahydrothieno[2,3-c]pyridin-3-yl)methyl)pyridazin-3-amine]
